Values belong to the compound of their own block, whether it stands above or below them. The source made the active and inactive calls.
Assays:
[1] = cytotoxicity in HEK-293T cells, dose response, cytotoxicity control for TCR NF-kB inhibitor project, luminescence, T-cell screen hits (AID 489026); assay type: functional, cell-based;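 further: cells exposed to compound about 14 hours before the viability readout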
INS1 = test: beta cell apoptosis inhibitors, cytokine rescue, dose response, luminescence, retest (AID 449756); assay type: functional, cell-based; conditions: Rattus norvegicus;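 further: cell death triggered by IL-1 beta plus TNF-alpha plus IFN-gamma mixture; protective hits raise ATP signal compared with cytokine alone wells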
[2] = biological target: T1, COUP transcription factor 2 (Homo sapiens, UniProt P24468); test: Luminescence-based cell-based high throughput dose response assay to identify inhibitors of COUP-TFII (NR2F2).; assay type: functional;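 further: HEK293 cells transiently cotransfected with COUP-TFII expression vector and reporter; luciferase reporter luminescence driven by COUP-TFII from the pX2-168 reporter plasmid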
T1 sequence (P24468 whole entry): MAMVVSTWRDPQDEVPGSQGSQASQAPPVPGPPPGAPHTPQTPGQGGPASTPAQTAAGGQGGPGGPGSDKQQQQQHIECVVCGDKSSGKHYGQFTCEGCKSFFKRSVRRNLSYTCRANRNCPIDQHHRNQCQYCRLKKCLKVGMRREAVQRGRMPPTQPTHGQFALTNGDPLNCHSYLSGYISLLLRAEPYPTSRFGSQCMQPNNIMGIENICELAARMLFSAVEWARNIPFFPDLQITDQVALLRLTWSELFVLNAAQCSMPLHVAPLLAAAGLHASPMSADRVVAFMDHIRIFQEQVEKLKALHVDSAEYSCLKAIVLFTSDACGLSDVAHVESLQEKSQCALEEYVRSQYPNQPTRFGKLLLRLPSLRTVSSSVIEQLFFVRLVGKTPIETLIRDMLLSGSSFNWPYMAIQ

[3] = HEK293T cell cytotoxicity, dose response, cytotoxicity control for HIV Vif inhibitor project, cherry-picks (AID 652208); assay type: functional, cell-based
[4] = control 3'UTR Renilla luciferase suppression, dose response, counter-screen for Shn3 inhibitor project, cell-based, Clone20-Shn3RL, cherry-picked (AID 624133); assay type: functional
[5] = LGR2 antagonists, dose response, cell-based, HEK293, CRE-luciferase reporter, cherry pick, set 2 (AID 743343); assay type: functional;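 further: transfected cells were stimulated with diluted bursicon conditioned medium after compound addition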
[6] = HEK293 cell cytotoxicity, dose response, cytotoxicity control, plate reader, cherry-picked samples (AID 743446); assay type: functional, cell-based
[7] = MC4R antagonists, dose response, counter-screen for LGR2 antagonist project, cell-based, plate reader, cherry pick (AID 743444); assay type: functional;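 further: transfected HEK 293 cells stimulated with alpha-MSH peptide; potency of inhibitors of the alpha-MSH evoked signal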
[8] = HepG2 cell cytotoxicity, dose response, cytotoxicity control for Shn3 inhibitor project, CellTiter-Glo, cherry-picked (AID 624134); assay type: functional, cell-based
[9] = Shn3 3'UTR reporter inhibitors, dose response, cell-based, Clone20 osteoblasts, firefly luciferase, cherry-picked (AID 624132); assay type: functional;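 further: firefly luciferase luminescence from reporter carrying the Shn3 3'UTR in osteoblasts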
[10] = HepG2 cell cytotoxicity, dose response, cytotoxicity control, plate reader, cherry-pick, antagonist series (AID 743416); assay type: functional, cell-based
[11] = A549 cell cytotoxicity, dose response, cytotoxicity control, plate reader, cherry-pick, antagonist series (AID 743412); assay type: functional, cell-based
[12] = biological target: T2, Oxysterols receptor LXR-beta (Homo sapiens, UniProt P55055); assay type: functional, cell-based;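 further: Cell-based luminescence dose-response assay of agonist activity at LXR, run as a confirmatory counterscreen to a daf-12 agonist screen; agonist potency from rising luciferase signal of a Gal4-LXR reporter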
T2 sequence (P55055 whole entry): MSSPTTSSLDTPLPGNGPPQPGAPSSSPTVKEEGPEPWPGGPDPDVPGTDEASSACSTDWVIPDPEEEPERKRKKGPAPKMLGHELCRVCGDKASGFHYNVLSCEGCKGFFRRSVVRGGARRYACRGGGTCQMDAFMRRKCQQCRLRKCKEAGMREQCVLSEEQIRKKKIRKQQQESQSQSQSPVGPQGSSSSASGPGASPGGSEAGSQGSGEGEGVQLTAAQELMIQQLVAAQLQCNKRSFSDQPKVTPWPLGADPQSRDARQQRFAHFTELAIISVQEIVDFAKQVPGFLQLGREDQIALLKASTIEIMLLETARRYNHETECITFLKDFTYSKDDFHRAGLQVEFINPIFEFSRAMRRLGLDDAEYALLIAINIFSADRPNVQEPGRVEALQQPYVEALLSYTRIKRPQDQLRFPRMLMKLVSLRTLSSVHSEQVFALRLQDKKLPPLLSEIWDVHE

[13] = Luminescence-based cell-based high throughput dose response assay to identify activators of the DAF-12 from the parasite S. stercoralis (ssDAF-12).; assay type: functional
[14] = HEp-2 cell cytotoxicity, dose response, cytotoxicity control for RSV inhibitor project, HTS (AID 2410); assay type: functional; conditions: human respiratory syncytial virus
[15] = biological target: T3, Mannose-6-phosphate isomerase (Homo sapiens, UniProt P34949); test: human PMI inhibitors, high substrate, primary screen, biochemical, fluorescence intensity, high mannose 6-phosphate (AID 1220)
T3 sequence (P34949 whole entry): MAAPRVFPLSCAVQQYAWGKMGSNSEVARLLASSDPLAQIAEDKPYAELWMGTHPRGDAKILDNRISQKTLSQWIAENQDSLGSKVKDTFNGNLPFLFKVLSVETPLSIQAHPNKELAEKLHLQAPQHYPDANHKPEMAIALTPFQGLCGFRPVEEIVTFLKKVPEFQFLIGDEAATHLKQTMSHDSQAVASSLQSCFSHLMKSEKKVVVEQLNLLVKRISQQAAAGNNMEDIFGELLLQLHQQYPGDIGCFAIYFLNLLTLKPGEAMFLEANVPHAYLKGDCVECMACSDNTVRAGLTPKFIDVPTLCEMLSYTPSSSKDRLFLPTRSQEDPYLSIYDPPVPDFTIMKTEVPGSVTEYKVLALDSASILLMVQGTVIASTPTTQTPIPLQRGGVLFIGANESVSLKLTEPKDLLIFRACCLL

[16] = biological target: T2, Oxysterols receptor LXR-beta; test: LXR agonists, Gal4 luciferase reporter, dose response, counter-screen for ssDAF-12 agonist project, cell-based, luminescence, HEK293, S. stercoralis campaign (AID 720737); assay type: functional; conditions: read-out: IC50 (the source's name)

SMILES: Cc1nn(C)c(C)c1CN(Cc1nc(CCC(C)C)no1)C(C)C
- IC50 [1]: > 80 µM (inactive)
- AC50 (INS1): 2.24 µM (active)
- IC50 [2]: 4.68 µM (active)

SMILES: COc1ccc(C=C2CS(=O)(=O)CC(=Cc3ccc(OC)cc3)C2=O)cc1
- AC50 [3]: 4.33 µM (active)

SMILES: CCOC(=O)N1CCN(c2c(NCc3ccc(Cl)cc3)c(=O)c2=O)CC1
- AC50 [3]: > 52 µM (inactive)

SMILES: CC(C)c1ccc(NC(=O)Nc2nc(C(N)c3ccccc3)cs2)cc1 (configuration not stated)
- AC50 [4]: 15.4 µM (active)
- AC50 [5]: 25.5 µM (active)
- AC50 [6]: 16 µM (active)
- AC50 [7]: 29 µM (active)
- AC50 [8]: 13.5 µM (active)
- AC50 [9]: 2.48 µM (active)
- AC50 [10]: 8.5 µM (active)
- AC50 [11]: 7.84 µM (active)

SMILES: Cc1ccc2[nH]c(-c3sc4nc(C)ccc4c3N)nc2c1
- EC50 [12]: > 67.5 µM (inactive)
- EC50 (cells): > 67.5 µM (inactive)
- IC50 [13]: > 67.6 µM (inactive)

- IC50 [15]: > 50 µM (not active)
SMILES: CC(C)C/N=C/c1c(O)c([N+](=O)[O-])cc2oc3c(c12)CCCC3
- CC50 [14]: 25.3 µM (active)

SMILES: Cc1cc(-c2nc3ccccc3s2)ccc1N
- EC50 [12]: > 67.6 µM (inactive)
- EC50 (cells): > 67.6 µM (inactive)
- IC50 [13]: > 67.6 µM (inactive)
- EC50 [16]: > 67.6 µM (inactive)

Source: ChEMBL document CHEMBL1201862, “PubChem BioAssay data set” (2004)
